The values that follow come from ChEMBL document CHEMBL1126502, “Enhancement of binding of quaternary ammonium derivatives of chlorpromaxine to dopamine D-2 receptors by the addition of a H-bonding group” (Bioorg Med Chem Lett, 1993).

Each structure is given as a SMILES string.

In this assay the target is D(2) dopamine receptor (Rattus norvegicus, UniProt P61169). Description: Tested for Competitive binding inhibition of [3H]spiperone to Dopamine receptor D2 in rat striatal membrane. It counts as cell membranes.
Chain of D(2) dopamine receptor (P61169 whole entry): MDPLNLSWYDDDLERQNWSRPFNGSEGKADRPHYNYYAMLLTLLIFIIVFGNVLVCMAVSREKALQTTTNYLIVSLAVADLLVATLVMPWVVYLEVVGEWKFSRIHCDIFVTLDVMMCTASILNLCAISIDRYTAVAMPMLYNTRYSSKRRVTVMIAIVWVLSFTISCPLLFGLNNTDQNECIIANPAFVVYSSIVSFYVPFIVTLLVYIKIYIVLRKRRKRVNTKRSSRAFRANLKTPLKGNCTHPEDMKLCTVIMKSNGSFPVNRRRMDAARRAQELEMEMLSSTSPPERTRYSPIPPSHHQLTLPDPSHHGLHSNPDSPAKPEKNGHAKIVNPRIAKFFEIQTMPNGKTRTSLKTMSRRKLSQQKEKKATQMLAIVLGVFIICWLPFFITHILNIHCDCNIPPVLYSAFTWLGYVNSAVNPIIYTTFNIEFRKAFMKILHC
`C[N+](C)(N)CCCN1c2ccccc2Sc2ccc(Cl)cc21` came in with a Ki of 0.82 µM. That is a sub-micromolar value.

Regarding `C[N+](C)(C)CCCN1c2ccccc2Sc2ccc(Cl)cc21`, the affinity, expressed as Ki, was 8.57 µM. Against the preceding compound, the Ki is about 10-fold higher. Compound `C[N+](C)(C)NCCN1c2ccccc2Sc2ccc(Cl)cc21` returned an inhibitory constant (Ki) of 4.88 µM.

By Ki is commonly meant a measure of affinity in units of concentration, obtained from inhibition or displacement. Read a low Ki as tighter binding.
